pKi: −log10 of the molar value. Where two headings read alike, the source gives them in different places.
Assays:
[1] = target: hNPY-1,2,4 (human Y1, Y2, Y4 receptors); experiment: Radioligand binding to membranes, cloned human Y1, Y2 and Y4 receptors; details: one bound given for all three
In short: (§1)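 Competition binding on membranes from stably transfected 293 or LM(tk-) cells, with 0.08 nM ¹²⁵I-PYY in pH 7.4 HEPES buffer plus 0.1% BSA, 120 min at 30 °C, filtration and counting. Nonspecific binding defined by 300 nM human NPY, or 100 nM human PP for Y4; nonlinear regression.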

[2] = target: T1, human Y5 receptor (h NPY-5) (Homo sapiens, UniProt Q15761); experiment: Functional assay: radioimmunoassay of cAMP; type: cell-based; details: functional antagonism, forskolin-stimulated cAMP, cells stably transfected with human Y5
T1 construct: expressed in transfected cells; host or cells: mouse fibroblast LM(tk-) cells, e.g. L-hY5-7 (ATCC CRL-11995)
T1 sequence (Q15761 1-445): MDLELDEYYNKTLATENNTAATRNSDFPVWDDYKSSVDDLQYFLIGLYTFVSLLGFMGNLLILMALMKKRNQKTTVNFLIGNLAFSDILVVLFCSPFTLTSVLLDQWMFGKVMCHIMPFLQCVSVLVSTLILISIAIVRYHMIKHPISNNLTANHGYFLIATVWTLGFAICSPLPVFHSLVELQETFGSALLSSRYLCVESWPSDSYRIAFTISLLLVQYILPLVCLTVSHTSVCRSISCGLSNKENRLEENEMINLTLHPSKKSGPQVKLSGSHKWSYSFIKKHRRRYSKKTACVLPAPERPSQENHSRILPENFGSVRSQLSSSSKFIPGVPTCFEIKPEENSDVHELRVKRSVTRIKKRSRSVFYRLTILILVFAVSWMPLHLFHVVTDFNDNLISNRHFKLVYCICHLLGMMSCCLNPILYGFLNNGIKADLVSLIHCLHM
Protocol: LM(tk-) cells stably transfected with the human Y5 receptor were routinely converted from an adherent monolayer to a viable suspension. Adherent cells were harvested with trypsin at the point of confluence, resuspended in a minimal volume of complete DMEM for a cell count, and further diluted to a concentration of 10^6 cells/ml in suspension media (10% bovine calf serum, 10% 10× Medium 199 (Gibco), 9 mM NaHCO3, 25 mM glucose, 2 mM L-glutamine, 100 units/ml penicillin/100 μg/ml streptomycin, and 0.05% methyl cellulose). The cell suspension was maintained in a shaking incubator at 37° C., 5% CO2 for 24 hours. Membranes harvested from cells grown in this manner may be stored as large, uniform batches in liquid nitrogen. Alternatively, cells may be returned to adherent cell culture in complete DMEM by distribution into 96-well microtiter plates coated with poly-D-lysine (0.01 mg/ml) followed by incubation at 37° C., 5% CO2 for 24 hours. Cells prepared in this manner yielded a robust and reliable NPY-dependent response in cAMP radio-immunoassays as further described hereinbelow.
Stably transfected cells were seeded into 96-well microtiter plates and cultured until confluent. To reduce the potential for receptor desensitization, the serum component of the media was reduced to 1.5% for 4 to 16 hours before the assay. Cells were washed in Hank's buffered saline, or HBS (150 mM NaCl, 20 mM HEPES, 1 mM CaCl2, 5 mM KCl, 1 mM MgCl2, and 10 mM glucose) supplemented with 0.1% bovine serum albumin plus 5 mM theophylline and pre-equilibrated in the same solution for 20 min at 37° C. in 5% CO2. Cells were then incubated 5 min with 10 μM forskolin and various concentrations of receptor-selective ligands. The assay was terminated by the removal of HBS and acidification of the cells with 100 mM HCl. Intracellular cAMP was extracted and quantified with a modified version of a magnetic bead-based radioimmunoassay (Advanced Magnetics, Cambridge, Mass.). The final antigen/antibody complex was separated from free ^125I-cAMP by vacuum filtration through a PVDF filter in a microtiter plate (Millipore, Bedford, Mass.). Filters were punched and counted for ^125I in a Packard gamma counter. Binding data were analyzed using nonlinear regression and statistical techniques available in the GraphPAD Prism package (San Diego, Calif.).

[3] = target: T2, human Y5 receptor (hNPY-5) (Homo sapiens, UniProt Q15761); experiment: Radioligand binding to membranes, cloned human Y5 receptor; details: for pKi: binding Ki as repeated in Table 4, read-out: Ki (h NPY-5); for Ki: cloned human NPY Y5 receptor, radioligand competition binding, Tables 1-3, read-out: Ki, nM hNPY-5
T2 construct: expressed in transfected cells; host or cells: mouse fibroblast LM(tk-) cells, e.g. L-hY5-7 (ATCC CRL-11995)
T2 sequence (Q15761 1-445): T1 sequence (Q15761 1-445)
In short: as §1

satiated rats = details: direct injection into the hypothalamus, 4-hour period; cited from earlier work

CN(C)S(=O)(=O)NC[C@H]1CC[C@H](Nc2nc3c(s2)CCCc2ccc(F)cc2-3)CC1 [Example 1, trans-N2-(4-Dimethylaminosulfonylaminomethyl)-cyclohexyl-9-fluoro-5,6-dihydro-4H-benzo[6,7]-cyclohepta[d][1,3]-thiazol-2-amine]
Ki [1]: > 10000 nM
Kb [2]: 12.6 nM
melting point: 60 to 65 °C
pKi [3]: 8.68
Ki [3]: 2.1 nM

O=S(=O)(NCCCCCNc1nc2c(s1)CCCc1ccc(F)cc1-2)c1cccc2ccccc12 [Example 4, 1-Aza-9-fluoro-4,5-dihydro-2-(5-(1-naphthyl)sulfonyl-amino)-pentylamino-3-thia-benzo[e]azulene]
Ki [1]: > 10000 nM
Kb [2]: 2.51 nM
pKi [3]: 7.71
Ki [3]: 19.5 nM

CS(=O)(=O)NC[C@H]1CC[C@H](Nc2nc3c(s2)CCCc2ccc(F)cc2-3)CC1 [Example 11, trans-1-Aza-9-fluoro-4,5-dihydro-2-(4-(methyl-sulfonylamino-methyl)cyclohexyl)amino-3-thia-benzo[e]azulene]
Ki [1]: > 10000 nM
Kb [2]: 3.16 nM
pKi [3]: 8.19
Ki [3]: 6.4 nM

CS(=O)(=O)N[C@H]1CC[C@H](CNc2nc3c(s2)CCCc2ccc(F)cc2-3)CC1 [Example 43, trans-N2-(4-Methylsulfonylamino)cyclohexylmethyl-9-fluoro-5,6-dihydro-4H-benzo[6,7]cyclohepta[d][1,3]-thiazol-2-amine]
Ki [1]: > 10000 nM
Kb [2]: 15.8 nM
pKi [3]: 8.36
Ki [3]: 4.4 nM

NS(=O)(=O)N[C@H]1CC[C@H](CNc2nc3c(s2)CCCc2ccc(F)cc2-3)CC1 [Example 44, trans-N2-(4-Aminosulfonylamino)cyclohexylmethyl-9-fluoro-5,6-dihydro-4H-benzo[6,7]cyclohepta[d][1,3]-thiazol-2-amine]
Ki [1]: > 10000 nM
Kb [2]: 1.58 nM
melting point: 180 to 182 °C
pKi [3]: 8.64
Ki [3]: 2.3 nM

NPY: peptide neurotransmitter neuropeptide Y, a 36 amino acid member of the pancreatic polypeptide family
increase of food intake (satiated rats): up to 10 fold

O=C1OCCN1C[C@H]1CC[C@H](Nc2nc3c(s2)CCCc2ccc(F)cc2-3)CC1 [Example 79, 3-({4-[(9-fluoro-5,6-dihydro-4H-benzo[6,7]cyclohepta-[d][1,3]thiazol-2-yl)amino]cyclohexyl}methyl)-1,3-oxazolan-2-one]
Kb [2]: 12.6 nM
pKi [3]: 7.70
Ki [3]: 20 nM

O=S(=O)(CC(F)(F)F)NCCCCCNc1nc2c(s1)CCCc1ccc(F)cc1-2 [Example 20, 1-Aza-9-fluoro-2-(5-(2-trifluoroethyl)sulfonylamino)-pentylamino-4,5-dihydro-3-thia-benzo [e]azulene]
Ki [1]: > 10000 nM
Kb [2]: 5.01 nM
pKi [3]: 9.52
Ki [3]: 5.8 nM

O=S(=O)(NCCCCCNc1nc2c(s1)CCCc1ccc(F)cc1-2)c1ccccc1F [Example 3, 1-Aza-9-fluoro-2-(5-(2-fluorophenyl)sulfonylamino)-pentylamino-4,5-dihydro-3-thia-benzo[e]azulene]
Ki [1]: > 10000 nM
Kb [2]: 3.16 nM
pKi [3]: 8.35
Ki [3]: 4.5 nM

CS(=O)(=O)N[C@H]1CC[C@H](Nc2nc3c(s2)CCCc2ccc(F)cc2-3)CC1 [Example 34, trans-1-Aza-9-fluoro-4,5-dihydro-2-(4-methyl-sulfonylamino)-cyclohexylamino-3-thia-benzo[e]azulene]
Kb [2]: 63.1 nM
melting point: 179 to 181 °C
pKi [3]: 7.47
Ki [3]: 34 nM

CS(=O)(=O)N[C@H]1CC[C@H](CNc2nc3c(s2)CCOc2ccccc2-3)CC1 [Example 50, trans-N2-(4-Methylsulfonylamino)cyclohexylmethyl-4,5-dihydro-benzo[2,3]oxepino[4,5-d][1,3]thiazol-2-amine]
Kb [2]: 7.94 nM
melting point: 64 to 67 °C
pKi [3]: 7.82
Ki [3]: 15.3 nM
